The values that follow come from PubChem BioAssay AID1259411 (Chemical Carcinogenesis Research Information System (CCRIS), 2018).

Activity calls are given as the source filed them. The rule behind the calls is not given here.

For this data set, the system named is rodent carcinogenicity bioassays, tumor incidence. Nature of the data set: CCRIS carcinogenicity studies. The gist of the method: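 Archive of carcinogenicity, mutagenicity, tumor promotion and tumor inhibition results drawn from journals, NCI reports and other sources, expert-reviewed; covers 1985-2011 and is no longer updated.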

In the case of `Cc1cc2ncccc2c2nc(N)n(C)c12`, the carcinogen call runs as follows: (Species: MOUSE, Strain/Sex: C57BL/6N/FEMALE, Route: ORAL, Dose: 0, 300 PPM IN DIET FOR 92 WK (STUDY DURATION: 92 WK), Tumor Site: Type of Lesion: COLON: ADENOCARCINOMA, CECUM: ADENOCARCINOMA, LIVER: HEPATOCELLULAR ADENOMA, HEPATOCELLULAR CARCINOMA, OR FIBROSARCOMA, Tumor Site: Type of Lesion: COLON: ADENOCARCINOMA, CECUM: ADENOCARCINOMA, LIVER: HEPATOCELLULAR ADENOMA, HEPATOCELLULAR CARCINOMA, OR FIBROSARCOMA) “active; positive”; (Species: MOUSE, Strain/Sex: CDF1/FEMALE, Route: ORAL, Dose: 0, 0.04% IN THE DIET FOR STUDY DURATION (STUDY DURATION: LIFESPAN), Tumor Site: Type of Lesion: FORESTOMACH: PAPILLOMA, SQUAMOUS CELL CARCINOMA, LIVER: HEPATOCELLULAR ADENOMA, HEPATOCELLULAR CARCINOMA) “active; positive”; (Species: MOUSE, Strain/Sex: CDF1/MALE, Route: ORAL, Dose: 0, 0.04% IN THE DIET FOR STUDY DURATION (STUDY DURATION: LIFESPAN), Tumor Site: Type of Lesion: FORESTOMACH: PAPILLOMA, SQUAMOUS CELL CARCINOMA, LIVER: CHOLANGIOCARCINOMA) “active; positive”; (Species: RAT, Strain/Sex: F344/MALE, Route: ORAL, Dose: 0, 0.03% IN DIET (DAILY INTAKE: 3.8 MG) FOR 286 D (STUDY DURATION: 286 D), Tumor Site: Type of Lesion: ZYMBAL GLAND: SQUAMOUS CELL CARCINOMA, ORAL CAVITY: SQUAMOUS CELL CARCINOMA OR SEBACEOUS SQUAMOUS CELL CARCINOMA, COLON:, Tumor Site: Type of Lesion: ZYMBAL GLAND: SQUAMOUS CELL CARCINOMA, ORAL CAVITY: SQUAMOUS CELL CARCINOMA OR SEBACEOUS SQUAMOUS CELL CARCINOMA, COLON:) “active; positive”; (Species: RAT, Strain/Sex: F344/MALE, Route: ORAL, Dose: 0, 0.03% IN DIET (DAILY INTAKE: 5.6 MG) FOR 286 D (STUDY DURATION: 286 D), Tumor Site: Type of Lesion: ZYMBAL GLAND: SQUAMOUS CELL CARCINOMA, ORAL CAVITY: SQUAMOUS CELL CARCINOMA OR SEBACEOUS SQUAMOUS CELL CARCINOMA, COLON:, Tumor Site: Type of Lesion: ZYMBAL GLAND: SQUAMOUS CELL CARCINOMA, ORAL CAVITY: SQUAMOUS CELL CARCINOMA OR SEBACEOUS SQUAMOUS CELL CARCINOMA, COLON:) “active; positive”; (Species: RAT, Strain/Sex: WISTAR/MALE, Route: INTRAGASTRIC, Dose: 0, 10 MG/KG IN ACIDIFIED WATER 1/D FOR 2 WK (STUDY DURATION: 58 WK), Tumor Site: Type of Lesion: ZYMBAL GLAND: CARCINOMA) “active; positive”.

For the compound `CN1CCCC1=O`, the carcinogen call was “active; positive” (Species: MOUSE, Strain/Sex: B6C3F1/FEMALE, Route: ORAL, Dose: 0, 600, 1200, 7200 PPM IN DIET FOR 18 MO (STUDY DURATION: 18 MO), Dose: 0, 600, 1200, 7200 PPM IN DIET FOR 18 MO (STUDY DURATION: 18 MO), Tumor Site: Type of Lesion: LIVER: HEPATOCELLULAR ADENOMA, HEPATOCELLULAR CARCINOMA); “active; positive” (Species: MOUSE, Strain/Sex: B6C3F1/MALE, Route: ORAL, Dose: 0, 600, 1200, 7200 PPM IN DIET FOR 18 MO (STUDY DURATION: 18 MO), Dose: 0, 600, 1200, 7200 PPM IN DIET FOR 18 MO (STUDY DURATION: 18 MO), Tumor Site: Type of Lesion: LIVER: HEPATOCELLULAR ADENOMA, HEPATOCELLULAR CARCINOMA); “inactive; negative” (Species: RAT, Strain/Sex: CD-1/FEMALE, Route: INHALATION, Dose: 0, 0.04, 0.4 MG/L 6 HR/D 5D/WK FOR 2 YR (STUDY DURATION: 2 YR), Dose: 0, 0.04, 0.4 MG/L 6 HR/D 5D/WK FOR 2 YR (STUDY DURATION: 2 YR)); “inactive; negative” (Species: RAT, Strain/Sex: CD-1/FEMALE, Route: ORAL, Dose: 0, 1600, 5000, 15000 PPM IN DIET FOR 2 YR (STUDY DURATION: 2 YR), Dose: 0, 1600, 5000, 15000 PPM IN DIET FOR 2 YR (STUDY DURATION: 2 YR)); “inactive; negative” (Species: RAT, Strain/Sex: CD-1/MALE, Route: INHALATION, Dose: 0, 0.04, 0.4 MG/L 6 HR/D 5D/WK FOR 2 YR (STUDY DURATION: 2 YR), Dose: 0, 0.04, 0.4 MG/L 6 HR/D 5D/WK FOR 2 YR (STUDY DURATION: 2 YR)); “inactive; negative” (Species: RAT, Strain/Sex: CD-1/MALE, Route: ORAL, Dose: 0, 1600, 5000, 15000 PPM IN DIET FOR 2 YR (STUDY DURATION: 2 YR), Dose: 0, 1600, 5000, 15000 PPM IN DIET FOR 2 YR (STUDY DURATION: 2 YR)).

Take `O=S(O)S(=O)(=O)O`: the carcinogen call is “inactive; negative” (Species: RAT, Strain/Sex: WISTAR/FEMALE, Route: ORAL, Dose: 0, 0.125, 0.25, 0.5, 1, 2% IN DIET FOR 104 WK (STUDY DURATION: 104 WK), Dose: 0, 0.125, 0.25, 0.5, 1, 2% IN DIET FOR 104 WK (STUDY DURATION: 104 WK)); “inactive; negative” (Species: RAT, Strain/Sex: WISTAR/FEMALE, Route: ORAL, Dose: 0, 0.125, 0.25, 0.5, 1, 2% IN DIET FOR 104 WK TO OFFSPRING OF RATS ADMINISTERED THE SAME DOSES IN THEIR DIETS (STUDY DUR, Dose: 0, 0.125, 0.25, 0.5, 1, 2% IN DIET FOR 104 WK TO OFFSPRING OF RATS ADMINISTERED THE SAME DOSES IN THEIR DIETS (STUDY DUR); “inactive; negative” (Species: RAT, Strain/Sex: WISTAR/MALE, Route: ORAL, Dose: 0, 0.125, 0.25, 0.5, 1, 2% IN DIET FOR 104 WK (STUDY DURATION: 104 WK), Dose: 0, 0.125, 0.25, 0.5, 1, 2% IN DIET FOR 104 WK (STUDY DURATION: 104 WK)); “inactive; negative” (Species: RAT, Strain/Sex: WISTAR/MALE, Route: ORAL, Dose: 0, 0.125, 0.25, 0.5, 1, 2% IN DIET FOR 104 WK TO OFFSPRING OF RATS ADMINISTERED THE SAME DOSES IN THEIR DIETS (STUDY DUR, Dose: 0, 0.125, 0.25, 0.5, 1, 2% IN DIET FOR 104 WK TO OFFSPRING OF RATS ADMINISTERED THE SAME DOSES IN THEIR DIETS (STUDY DUR).

Turning to `C=C(C)[C@H]1CC=C(C)CC1`, the carcinogen call (Species: MOUSE, Strain/Sex: B6C3F1/FEMALE, Route: GAVAGE, Dose: 0, 500, 1000 MG/KG IN CORN OIL 5 D/WK FOR 103 WK (STUDY DURATION: 105 WK), Dose: 0, 500, 1000 MG/KG IN CORN OIL 5 D/WK FOR 103 WK (STUDY DURATION: 105 WK)) is “inactive; negative”; the carcinogen call (Species: MOUSE, Strain/Sex: B6C3F1/MALE, Route: GAVAGE, Dose: 0, 250, 500 MG/KG IN CORN OIL 5 D/WK FOR 103 WK (STUDY DURATION: 105 WK), Dose: 0, 250, 500 MG/KG IN CORN OIL 5 D/WK FOR 103 WK (STUDY DURATION: 105 WK)) was “inactive; negative”; the carcinogen call (Species: RAT, Strain/Sex: F344/FEMALE, Route: GAVAGE, Dose: 0, 300, 600 MG/KG IN CORN OIL 5 D/WK FOR 103 WK (STUDY DURATION: 106 WK), Dose: 0, 300, 600 MG/KG IN CORN OIL 5 D/WK FOR 103 WK (STUDY DURATION: 106 WK)) is “inactive; negative”; the carcinogen call (Species: RAT, Strain/Sex: F344/MALE, Route: GAVAGE, Dose: 0, 75, 150 MG/KG IN CORN OIL 5 D/WK FOR 103 WK (STUDY DURATION: 106 WK), Dose: 0, 75, 150 MG/KG IN CORN OIL 5 D/WK FOR 103 WK (STUDY DURATION: 106 WK), Tumor Site: Type of Lesion: KIDNEY: TUBULAR CELL ADENOMA, TUBULAR CELL ADENOMA OR ADENOCARCINOMA) is “active; positive”.

For the compound `CCN(COC(C)=O)N=O`, the carcinogen call runs as follows: (Species: RAT, Strain/Sex: F344/FEMALE, Route: SUBCUTANEOUS, Dose: 5.5 MG/KG 1/WK FOR 10 WK, Tumor Site: Type of Lesion: INJECTION SITE: MALIGNANT FIBROUS HISTIOCYTOMA, LUNG: ADENOMA, ADENOCARCINOMA, SQUAMOUS CELL CARCINOMA) “active; positive”; (Species: RAT, Strain/Sex: F344/MALE, Route: SUBCUTANEOUS, Dose: 5.5 MG/KG 1/WK FOR 10 WK, Tumor Site: Type of Lesion: INJECTION SITE: MALIGNANT FIBROUS HISTIOCYTOMA, LUNG: ADENOMA, ADENOCARCINOMA, SQUAMOUS CELL CARCINOMA, THYROID GLAND: C, Tumor Site: Type of Lesion: INJECTION SITE: MALIGNANT FIBROUS HISTIOCYTOMA, LUNG: ADENOMA, ADENOCARCINOMA, SQUAMOUS CELL CARCINOMA, THYROID GLAND: C) “active; positive”.
